Results: patent US11684660B2, “Human PD1 peptide vaccines and uses thereof” (OHIO STATE INNOVATION FOUNDATION, priority 2017, dated 2023)
No end group written: not given here.

What was measured:
[1] = target: T1, extracellular domain of human PD-L1 (hPD-L1) (Homo sapiens, UniProt Q9NZQ7); experiment: BIACORE SPR binding to immobilized rhPD-L1; settings: 1 μM peptide
T1 construct: Recombinant hPD-L1 ectodomain was immobilized onto the gold surface of a CM5 sensor chip
Method: To test the activity of all the selected peptides, surface plasmon resonance (SPR) spectroscopy (BIACORE™ T200, at […]) was used to measure their binding affinities to the extracellular domain of human PD-L1 (hPD-L1). Recombinant hPD-L1 ectodomain was immobilized onto the gold surface of a CM5 sensor chip by direct amine coupling.
(§1) 1 μM BSA was used as the negative control. The chip was regenerated by 10 mM Glycine-HCl, pH 2.5(FIG. 3E).
(§2) 1 μM of various PD-1 peptides were injected over the chip for 1 min at 10 μl/min followed by 1 min dissociation and then 1 min regeneration with 10 mM Glycine-HCl, pH 2.5 for each run.

Nivolumab = experiment: BIACORE SPR binding to immobilized Nivolumab; settings: 1 μM peptide
Method: as §1, §2

[2] = system: murine colon carcinoma CT26 tumor cells; experiment: CT26 tumor challenge in Balb/c mice immunized with PD-1 constructs; format: in vivo
Method: Immunocompetent Balb/c mice of 6-8 weeks of age were purchased from Charles River Laboratories, Wilmington, Mass. and housed in The Ohio State University's University Laboratory Animal Resources (ULAR) facilitates. Isoflurane was used to anaesthetize the animals before cells injection and termination. Pre-immune sera samples were taken from the mice then they were immunized with 100 μg of peptide emulsified in Montanide ISA 720 (Seppic, Paris, France) and nor-MDP adjuvant (N-acetyl-glucosamine-3 yl-acetyl L-alanyl-D-isoglutamine). Mice received booster immunizations 3 and 6 weeks after the first. Several test sera samples were taken from the mice (FIG. 8).
10 days after the second boost, mice were inoculated with […] murine colon carcinoma CT26 tumor cells subcutaneous on the right flank. Tumor growth was monitored three times a week and sera samples were taken weekly and upon sacrifice of the animal. Control mice on day 0 were engrated with 1×10^5 CT26 tumor cells subcutaneous and received. The animals received 150 μg injections of anti-mouse antibodies directed against PD-1. Mice were monitored and scored for the formation of palpable tumors twice weekly and sacrificed if tumors became necrotic or exceeded the predetermined size of 2,000 mm3. Tumor diameters were measured twice a week. Tumor size was calculated according to the formula: V=[(length ×width2)/2]. Tumor volumes were measured in cubic millimeters with calipers and calculated with the following formula: A×B2×0.5, where A is the largest diameter, and B is the smallest diameter. All experiments were performed in accordance with the U.S. Public Health Service Policy on Humane Care and Use of Laboratory Animals and approved by the Ohio State University Institutional Animals Care and Use Committee and detailed in the accepted protocol
To assess performance of 4 different vaccine treatments on tumor growth, tumor size was measured periodically in mice, and the results were compared to those of positive and negative controls. There were 5 mice in each treatment group, each receiving the assigned MVF-peptide and then being inoculated with 1e5 CT26 (colon) tumor cells 10 days after the final boost of the treatment. Day 14 was considered the primary time point of interest, as the investigators believed waiting until day 19 allowed the tumors too much time to grow, resulting in similar sizes at that point of the experiment. Tumor size was measured in three ways: LWW (½*length*width*width) at all time points, LWH (½*length*width*height) at all time points, and terminal tumor weight at the end of the study. The mice treated with MVF-PD-a(45), group C, were sacrificed before day 19 due to the death of one mouse, so the comparisons can only be made between tumor size at day 14. Tumor size is in units of mm3 for LWW and LWH and grams for terminal tumor weight.
Due to small sample sizes in each group and inability to assume normality, the exact Wilcoxon rank-sum test was used to check for systematic differences between the distributions of tumor size at times 14 days and 19 days (FIGS. 12A-D and Tables 7-10). P-values given are for test comparing that column's control to the respective treatment, and are two-sided to account for the possibility of tumor size being systematically larger or smaller between treatment and control. As this is preliminary data, the p-values are not adjusted for multiple comparisons. Overall, there were few instances of significant differences between the distributions of a control and a treatment.
Immunocompetent Balb/c mice (5 mice/gp) of 6-8 weeks of age were immunized with 100 μg of peptide emulsified in Montanide ISA 720 (Seppic, Paris, France) and nor-MDP adjuvant (N-acetyl-glucosamine-3 yl-acetyl L-alanyl-D-isoglutamine). […]

T1 sequence (Q9NZQ7 19-238 limits assumed): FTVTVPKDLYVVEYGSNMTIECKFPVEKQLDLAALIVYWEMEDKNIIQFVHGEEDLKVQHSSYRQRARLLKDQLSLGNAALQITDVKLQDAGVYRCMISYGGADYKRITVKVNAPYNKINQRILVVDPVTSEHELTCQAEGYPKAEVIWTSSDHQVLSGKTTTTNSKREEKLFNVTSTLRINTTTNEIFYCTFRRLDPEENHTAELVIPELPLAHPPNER

KLLSLIKGVIVHRLEGVE-GPSL-GAISLAPKAQIKESLRAEL-CONH2 (KLLSLIKGVIVHRLEGVEGPSLGAISLAPKAQIKESLRAEL-NH2) [MVF-PD-1 (92-110)]
binding to immobilized rhPD-L1 (in words) [1]: bind | SPR response of peptide binding to immobilized rhPD-L1 ([1]; 1 min at 10 μl/min): around 110 RU | binding to immobilized Nivolumab (in words) (Nivolumab): bind | SPR response of peptide binding to immobilized Nivolumab (Nivolumab; 1 min at 10 μl/min): 970 RU | inhibition of tumor growth ([2]; Day 14, FIG. 15): significant inhibition of tumor growth | median terminal tumor weight ([2]; end of study, 5 mice/group): 1.1 grams | difference in tumor size distribution versus controls ([2]; exact Wilcoxon rank-sum test, two-sided, unadjusted): systematically smaller tumor sizes than the positive control | median tumor size LWH, Day 19 ([2]; median, 5 mice/group): 819 mm3 | median tumor size LWW, Day 19 ([2]; median, 5 mice/group): 1080 mm3 | median tumor size LWH, Day 14 ([2]; median, 5 mice/group, ½*length*width*height): 270 mm3 | median tumor size LWW, Day 14 ([2]; median, 5 mice/group, ½*length*width*width): 384 mm3
